In the NIST ThermoML archive (doi:10.1021/je8003782):

Test: xn = mol fraction of the nth substance listed
Details: 101 kPa, Liquid

C1N2CN3CN1CN(C2)C3 [1,3,5,7-tetraazaadamantane] + CC(=O)O
Details	mass density [kg/m3]	viscosity [mPa·s]
293.15 K, x1 = 0.0201	1058.6	1.497
293.15 K, x1 = 0.0401	1066.7	1.865
293.15 K, x1 = 0.06	1075.67	2.363
293.15 K, x1 = 0.0801	1085.77	3.021
293.15 K, x1 = 0.1	1091.87	3.841
293.15 K, x1 = 0.1201	1100.76	4.951
293.15 K, x1 = 0.15	1111.19	7.154
298.15 K, x1 = 0.0201	1052.66	1.367
298.15 K, x1 = 0.0401	1061.41	1.682
298.15 K, x1 = 0.06	1070.38	2.106
298.15 K, x1 = 0.0801	1080.66	2.655
298.15 K, x1 = 0.1	1086.54	3.333
298.15 K, x1 = 0.1201	1095.79	4.254
298.15 K, x1 = 0.15	1106.18	5.988
303.15 K, x1 = 0.0201	1046.65	1.248
303.15 K, x1 = 0.0401	1055.87	1.523
303.15 K, x1 = 0.06	1065.17	1.893
303.15 K, x1 = 0.0801	1075.44	2.355
303.15 K, x1 = 0.1	1081.61	2.919
303.15 K, x1 = 0.1201	1090.8	3.657
303.15 K, x1 = 0.15	1101.14	5.085
308.15 K, x1 = 0.0201	1042.8	1.148
308.15 K, x1 = 0.0401	1050.6	1.383
308.15 K, x1 = 0.06	1059.92	1.703
308.15 K, x1 = 0.0801	1068.93	2.091
308.15 K, x1 = 0.1	1076.58	2.565
308.15 K, x1 = 0.1201	1086.04	3.179
308.15 K, x1 = 0.15	1096.34	4.368
313.15 K, x1 = 0.0201	1036.2	1.059
313.15 K, x1 = 0.0401	1045.66	1.268
313.15 K, x1 = 0.06	1055.02	1.549
313.15 K, x1 = 0.0801	1063.52	1.879
313.15 K, x1 = 0.1	1071.68	2.296
313.15 K, x1 = 0.1201	1081.27	2.806
313.15 K, x1 = 0.15	1091.63	3.821
318.15 K, x1 = 0.0201	1030.1	0.992
318.15 K, x1 = 0.0401	1039.61	1.179
318.15 K, x1 = 0.06	1049.52	1.435
318.15 K, x1 = 0.0801	1057.74	1.719
318.15 K, x1 = 0.1	1065.6	2.073
318.15 K, x1 = 0.1201	1076.49	2.512
318.15 K, x1 = 0.15	1086	3.352
323.15 K, x1 = 0.0201	1024.35	0.909
323.15 K, x1 = 0.0401	1034.21	1.072
323.15 K, x1 = 0.06	1044.05	1.296
323.15 K, x1 = 0.0801	1052.4	1.541
323.15 K, x1 = 0.1	1060.71	1.842
323.15 K, x1 = 0.1201	1069.06	2.203
323.15 K, x1 = 0.15	1080.9	2.893
328.15 K, x1 = 0.0201	1019.23	0.845
328.15 K, x1 = 0.0401	1028.98	0.988
328.15 K, x1 = 0.06	1039.22	1.185
328.15 K, x1 = 0.0801	1047.33	1.395
328.15 K, x1 = 0.1	1055.72	1.657
328.15 K, x1 = 0.1201	1064	1.97
328.15 K, x1 = 0.15	1075.88	2.545
333.15 K, x1 = 0.0201	1014.76	0.79
333.15 K, x1 = 0.0401	1024.69	0.919
333.15 K, x1 = 0.06	1034.16	1.096
333.15 K, x1 = 0.0801	1043.04	1.279
333.15 K, x1 = 0.1	1051.63	1.515
333.15 K, x1 = 0.1201	1059.77	1.776
333.15 K, x1 = 0.15	1071.94	2.285

CC(=O)OC(C)=O [ethanoic anhydride] + CC(=O)O
Details	mass density [kg/m3]	viscosity [mPa·s]
293.15 K, x2 = 0	1080.89	0.888
293.15 K, x2 = 0.1	1079.28	0.905
293.15 K, x2 = 0.2	1077.19	0.92
293.15 K, x2 = 0.2999	1074.93	0.934
293.15 K, x2 = 0.3996	1072.42	0.954
293.15 K, x2 = 0.4999	1069.56	0.975
293.15 K, x2 = 0.5965	1066.68	1.004
293.15 K, x2 = 0.6992	1063.1	1.041
293.15 K, x2 = 0.8004	1059.19	1.084
293.15 K, x2 = 0.8976	1054.94	1.145
298.15 K, x2 = 0	1074.8	0.829
298.15 K, x2 = 0.1	1073.24	0.844
298.15 K, x2 = 0.2	1071.18	0.859
298.15 K, x2 = 0.2999	1068.96	0.872
298.15 K, x2 = 0.3996	1066.47	0.887
298.15 K, x2 = 0.4999	1063.66	0.908
298.15 K, x2 = 0.5965	1060.8	0.933
298.15 K, x2 = 0.6992	1057.27	0.966
298.15 K, x2 = 0.8004	1053.41	1.008
298.15 K, x2 = 0.8976	1049.21	1.057
303.15 K, x2 = 0	1068.7	0.778
303.15 K, x2 = 0.1	1067.18	0.793
303.15 K, x2 = 0.2	1065.17	0.805
303.15 K, x2 = 0.2999	1062.98	0.819
303.15 K, x2 = 0.3996	1060.53	0.831
303.15 K, x2 = 0.4999	1057.75	0.849
303.15 K, x2 = 0.5965	1054.93	0.874
303.15 K, x2 = 0.6992	1051.45	0.903
303.15 K, x2 = 0.8004	1047.64	0.936
303.15 K, x2 = 0.8976	1043.48	0.985
308.15 K, x2 = 0	1062.61	0.729
308.15 K, x2 = 0.1	1061.12	0.742
308.15 K, x2 = 0.2	1059.15	0.754
308.15 K, x2 = 0.2999	1057	0.768
308.15 K, x2 = 0.3996	1054.57	0.777
308.15 K, x2 = 0.4999	1051.83	0.793
308.15 K, x2 = 0.5965	1049.05	0.814
308.15 K, x2 = 0.6992	1045.62	0.842
308.15 K, x2 = 0.8004	1041.85	0.873
308.15 K, x2 = 0.8976	1037.75	0.919
313.15 K, x2 = 0	1056.49	0.688
313.15 K, x2 = 0.1	1055.06	0.699
313.15 K, x2 = 0.2	1053.12	0.71
313.15 K, x2 = 0.2999	1051	0.721
313.15 K, x2 = 0.3996	1048.6	0.734
313.15 K, x2 = 0.4999	1045.9	0.748
313.15 K, x2 = 0.5965	1043.16	0.766
313.15 K, x2 = 0.6992	1039.78	0.791
313.15 K, x2 = 0.8004	1036.06	0.82
313.15 K, x2 = 0.8976	1032.01	0.86
318.15 K, x2 = 0	1050.38	0.648
318.15 K, x2 = 0.1	1048.96	0.659
318.15 K, x2 = 0.2	1047.07	0.666
318.15 K, x2 = 0.2999	1044.99	0.678
318.15 K, x2 = 0.3996	1042.62	0.688
318.15 K, x2 = 0.4999	1039.96	0.703
318.15 K, x2 = 0.5965	1037.26	0.721
318.15 K, x2 = 0.6992	1033.93	0.743
318.15 K, x2 = 0.8004	1030.27	0.77
318.15 K, x2 = 0.8976	1026.28	0.8
323.15 K, x2 = 0	1044.24	0.61
323.15 K, x2 = 0.1	1042.87	0.621
323.15 K, x2 = 0.2	1041.01	0.627
323.15 K, x2 = 0.2999	1038.96	0.638
323.15 K, x2 = 0.3996	1036.63	0.649
323.15 K, x2 = 0.4999	1034.01	0.661
323.15 K, x2 = 0.5965	1031.34	0.676
323.15 K, x2 = 0.6992	1028.06	0.699
323.15 K, x2 = 0.8004	1024.46	0.723
323.15 K, x2 = 0.8976	1020.54	0.751
328.15 K, x2 = 0	1038.07	0.58
328.15 K, x2 = 0.1	1036.74	0.587
328.15 K, x2 = 0.2	1034.94	0.595
328.15 K, x2 = 0.2999	1032.91	0.603
328.15 K, x2 = 0.3996	1030.61	0.614
328.15 K, x2 = 0.4999	1028.04	0.625
328.15 K, x2 = 0.5965	1025.39	0.639
328.15 K, x2 = 0.6992	1022.18	0.66
328.15 K, x2 = 0.8004	1018.64	0.68
328.15 K, x2 = 0.8976	1014.79	0.708
333.15 K, x2 = 0	1031.9	0.548
333.15 K, x2 = 0.1	1030.63	0.556
333.15 K, x2 = 0.2	1028.83	0.562
333.15 K, x2 = 0.2999	1026.84	0.57
333.15 K, x2 = 0.3996	1024.57	0.58
333.15 K, x2 = 0.4999	1022.05	0.59
333.15 K, x2 = 0.5965	1019.44	0.605
333.15 K, x2 = 0.6992	1016.3	0.622
333.15 K, x2 = 0.8004	1012.82	0.64
333.15 K, x2 = 0.8976	1009.03	0.665
338.15 K, x2 = 0	1025.7	0.521
338.15 K, x2 = 0.1	1024.48	0.53
338.15 K, x2 = 0.2	1022.71	0.533
338.15 K, x2 = 0.2999	1020.75	0.542
338.15 K, x2 = 0.3996	1018.52	0.551
338.15 K, x2 = 0.4999	1016.04	0.558
338.15 K, x2 = 0.5965	1013.48	0.575
338.15 K, x2 = 0.6992	1010.39	0.59
338.15 K, x2 = 0.8004	1006.97	0.605
338.15 K, x2 = 0.8976	1003.24	0.629
